From patent US20260102344A1, “METERED DOSE INHALERS AND SUSPENSION COMPOSITIONS” (Kindeva Drug Delivery L.P., priority 2021, published 2026)
Values after ≈ are worked out from the molar mass of the structure shown.

Assays:
Format in all cases: physicochemical
[1] = Fine particle fraction by Fast Screening Impactor (FSI), fluticasone propionate in HFO-1234ze(E) without ethanol; conditions: HFO-1234ze(E) suspension 2 mg/mL, no ethanol
Procedure: A suspension of micronized fluticasone propionate was prepared in HFO-1234ze(E) with no additional excipients, including ethanol. Each suspension included an amount of fluticasone propionate (2 mg/mL) to provide a nominal dose of […]. Each suspension was filled into FEP coated canisters and crimped with a metering valve and tested with a KINDEVA actuator.
When tested with KINDEVA actuators with exit orifice diameters of 0.3 mm, 0.22 mm, and 0.18 mm using a Fast Screening Impactor (FSI), it was observed that corresponding FPF of 35%, 43%, and 50% were achieved.

[2] = Aerodynamic particle size measurement, fluticasone propionate in HFO-1234ze(E); conditions: HFO-1234ze(E) suspension 2 mg/mL, 50-μL valve, 0.5 mm actuator
Procedure: Suspensions of micronized fluticasone propionate were prepared in HFO-1234ze(E). The nominal concentration of fluticasone propionate in each suspension was 2 mg/mL. A first suspension included 0% ethanol. A second suspension included 2% ethanol by weight. A third suspension included 5% ethanol by weight. A fourth suspension included 10% ethanol by weight.
Each suspension was filled into an FEP-coated canister and fitted with a 50-μL valve. The suspensions were sonicated for 10 minutes to disperse the fluticasone propionate. The suspensions were tested using a KINDEVA actuator with a 0.5 mm exit orifice diameter.
For each suspension, FPM, median mass aerodynamic diameter (MMAD), FPF, metered dose (ex-valve), and delivered dose (ex-actuator) were measured.

[3] = Saturated solubility of fluticasone propionate in HFO-1234ze(E) with ethanol; conditions: saturated solubility in HFO-1234ze(E), no additional excipients; for solubility: HFO-1234ze(E) propellant with ethanol, organic solvent or mixture, thermodynamic from solid
Procedure: The solubility of fluticasone propionate in each suspension was measured by content assay following filtration of the excess non-dissolved drug.

[4] = Mometasone solubility in HFO-1234ze(E) (Example 10)
[5] = Saturated solubility, mometasone furoate in HFO-1234ze(E) (Example 11)
Procedure: Suspensions of micronized mometasone furoate were prepared in HFO-1234ze(E). […]. A second suspension included 0.5% ethanol by weight. A third suspension included 1% ethanol by weight. A fourth suspension included 2% ethanol by weight.
Devices were prepared by weighing mometasone furoate in FEP coated canisters fitted with a 50-μL valve, a Mk6s actuator, and dose counter. The valve was crimped on, and the propellant was pressure filled through the valve. The units were sonicated for 10 minutes to fully disperse the mometasone furoate. Through life dosing was tested for each suspension 3 units with the Mk6s actuator having 0.5-mm exit orifice and 0.8-mm jet length. Saturated solubility was also measured for each suspension. The results are shown in Example 10.

[6] = Delivered dose and particle size measurement, salbutamol sulfate in HFO-1234ze(E); conditions: HFO-1234ze(E) suspension 1.91 mg/mL, nominal 100 μg/actuation, 63-μL valve, 0.4 mm actuator
Procedure: A first suspension included no ethanol. […] A fifth suspension included 15% ethanol by weight. […] Each suspension was filled into FEP coated canisters, crimped with a 63-μL valve and tested with a […] actuator having an exit orifice diameter of 0.4 mm for testing. The fine particle mass (FPM), median mass aerodynamic diameter (MMAD), fine particle fraction (FPF), metered dose (ex-valve), and delivered dose (ex-act) were measured for each suspension.

[7] = Delivered dose and fine particle mass, salbutamol sulfate in HFO-1234ze(E) with 5.0% or 15% ethanol; conditions: HFO-1234ze(E) suspension 1.91 mg/mL, 63-μL APTAR, mean of triplicate
Procedure: Each suspension was filled into FEP coated canisters, crimped with a valve, and coupled to […] actuator for testing. Fine particle mass and delivered dose were measured for each suspension.

An FPF ([1]; actuator exit orifice 0.18 mm) of 50%, an FPF ([1]; actuator exit orifice 0.22 mm) of 43% and an FPF ([1]; actuator exit orifice 0.3 mm) of 35% were found for `CCC(=O)O[C@]1(C(=O)SCF)[C@H](C)C[C@H]2[C@@H]3C[C@H](F)C4=CC(=O)C=C[C@]4(C)[C@@]3(F)[C@@H](O)C[C@@]21C` [fluticasone propionate] in this work. For the same molecule, the FPF ([2]; ethanol 0% by weight) was 60.6%, the FPM ([2]; ethanol 0% by weight) was 5.3 μg/actuation and the MMAD ([2]; ethanol 0% by weight) was 5.0 μm. The FPF ([2]; ethanol 2% by weight) was 43.8%, the FPM ([2]; ethanol 2% by weight) was 30.0 μg/actuation and the MMAD ([2]; ethanol 2% by weight) was 5.4 μm. The FPF ([2]; ethanol 5% by weight) was 28.9%, the FPM ([2]; ethanol 5% by weight) was 27.9 μg/actuation and the MMAD ([2]; ethanol 5% by weight) was 2.4 μm. It also gave an FPF ([2]; ethanol 10% by weight) of 19.6%, an FPM ([2]; ethanol 10% by weight) of 18.7 μg/actuation and an MMAD ([2]; ethanol 10% by weight) of 2.1 μm. The solubility ([3]; ethanol 0% by weight) was 3.2 µg/mL (≈ 6.39 µM), the solubility ([3]; ethanol 2% by weight) was 30.3 µg/mL (≈ 60.5 µM) and the solubility ([3]; ethanol 5% by weight) was 135 µg/mL (≈ 269 µM). The “Mean fluticasone propionate solubility” value ([3]; ethanol 1% by weight) was 0.0124 mg/mL and the “Mean fluticasone propionate solubility” value ([3]; ethanol 10% by weight) was 0.3675 mg/mL.
A Mean mometasone solubility ([4]; ethanol 0% by weight) of 0.8 µg/mL, a Mean mometasone solubility ([4]; ethanol 1% by weight) of 7.6 µg/mL and a Saturated solubility ([5]; ethanol 0%) of 0.8 µg/mL were found for `C[C@@H]1C[C@H]2[C@@H]3CCC4=CC(=O)C=C[C@]4(C)[C@@]3(Cl)[C@@H](O)C[C@]2(C)[C@@]1(OC(=O)c1ccco1)C(=O)CCl` [mometasone furoate] in this work. The Saturated solubility ([5]; ethanol 2%) was 7.6 µg/mL.
For salbutamol sulfate, the “FPF (fine particle fraction)” value ([6]; ethanol 0% by weight) was 57.5%, the “FPM (fine particle mass)” value ([6]; ethanol 0% by weight) was 45.3 μg/act and the “MMAD (median mass aerodynamic diameter)” value ([6]; ethanol 0% by weight) was 1.9 μm. For the same molecule, the “FPF (fine particle fraction)” value ([6]; ethanol 2% by weight) was 48.5%, the “FPM (fine particle mass)” value ([6]; ethanol 2% by weight) was 45.9 μg/act and the “MMAD (median mass aerodynamic diameter)” value ([6]; ethanol 2% by weight) was 2.0 μm. The “FPF (fine particle fraction)” value ([6]; ethanol 5% by weight) was 39.1%, the “FPM (fine particle mass)” value ([6]; ethanol 5% by weight) was 36.8 μg/act and the “MMAD (median mass aerodynamic diameter)” value ([6]; ethanol 5% by weight) was 1.9 μm. For the same molecule, the “FPF (fine particle fraction)” value ([6]; ethanol 10% by weight) was 27.6%, the “FPM (fine particle mass)” value ([6]; ethanol 10% by weight) was 25.4 μg/act and the “MMAD (median mass aerodynamic diameter)” value ([6]; ethanol 10% by weight) was 2.0 μm. The “FPF (fine particle fraction)” value ([6]; ethanol 15% by weight) was 19.6%, the “FPM (fine particle mass)” value ([6]; ethanol 15% by weight) was 18.5 μg/act and the “MMAD (median mass aerodynamic diameter)” value ([6]; ethanol 15% by weight) was 2.0 μm. The Fine particle fraction ([7]; ethanol 5.0%) was 38% and the Fine particle fraction ([7]; ethanol 15%) was 20%.
